# Experimental data published in patent publication EP0165970B1, “HAIR GROWTH MODIFICATION” (KASZYNSKI, Edwin G., priority 1983, dated 1985).
# Experiments:
# flank organ hair = assay: Flank organ hair mass (hair re-growth) after topical application; type: in vivo; conditions: adult intact male hamsters
# From the text: The absence of antagonism of synthemic androgen activity in the practice of our invention can be shown by the topical application of suitable compositions to one of the two flank organs of mature male hamsters. Dose-related decreases in androgen-dependent flank organ hair growth are obtained on the treated side but no statistically significant change occurs in the contralateral, vehicle-treated side. Similar studies have been conducted using female hamsters in which hair growth on the flank organs has been stimulated by the subcutaneous administration of a suitable androgen.
# Summarized below are the results of several experiments comparing the efficacy of several compositions in reducing the flank organ hair mass in adult intact male hamsters. In each case, hamsters were treated for 15 days (Monday-Friday) during a 21-day interval. Flank organ hairs were depilated on the first day of treatment and redepilated on the sixth day of treatment. The mass of flank organ hair represents the re-growth during the final 14 days of the 21-day interval. The results for percent inhibition shown below are based upon comparisons between the hair mass values of hairs hervested from treated flank organs of experimental animals and those obtained from vehicle-treated control animals.
# [1] = system: ornithine decarboxylase (ODC); assay: Flank organ ornithine decarboxylase (ODC) activity, in vivo screen for topical antiandrogens; set-up: species or system hamsters; conditions: for ODC activity in flank organs: applied topically, single agents
# From the text: A novel method for screening topical antiandrogens has been developed in which the fluctuations in flank organ activity of the enzyme ornithine decarboxylase (ODC) in response to androgens and antiandrogens is exploited to provide a rapid, in vivo screen for antiandrogens, based on a biochemical parameter specifically related to androgenic stimulation of pilosebaceous target tissues.
# A further series of investigations on the androgenic regulation of ODC activity in hamster flank organs has been conducted to test topical antiandrogenic formulations consisting of combination regimens.
# [2] = topical, androgen stimulated female hamsters
# [3] = unilateral topical application, flank organs of intact (uncastrated) male hamsters
# [4] = Experiment III, 500 micrograms per square centimeter
smiles,measurement,setting,value
C[C@]12CC[C@H]3[C@@H](CCC4=CC(=O)CC[C@@]43C)[C@@H]1CC[C@@H]2C(=O)O [4-androstene-3-one-17B- Carboxylic acid],% Inhibition,"flank organ hair; Experiment II, 400 micrograms per square centimeter",29%
CC(=O)O[C@]1(C(C)=O)CC[C@H]2[C@@H]3C=C(Cl)C4=CC(=O)[C@@H]5C[C@@H]5[C@]4(C)[C@H]3CC[C@@]21C [Cyproterone acetate],% Inhibition,"flank organ hair; Experiment I, 500 micrograms per square centimeter",26%
same,% Inhibition,"flank organ hair; Experiment II, 50 micrograms per square centimeter",23%
same,% Inhibition,"flank organ hair; Experiment II, 500 micrograms per square centimeter",38%
same,ODC activity in flank organs,[1],inhibit ODC activity
same,ODC activity,[1]; [2],inhibited ODC activity
C=CC[C@]1(O)CC[C@H]2[C@@H]3CCC4=CC(=O)CC[C@]4(C)[C@H]3CC[C@@]21C [17-α-allyltestosterone],% Inhibition,"flank organ hair; Experiment IV, 5 micrograms per square centimeter",0%
same,% Inhibition,"flank organ hair; Experiment IV, 20 micrograms per square centimeter",29%
same,% Inhibition,"flank organ hair; Experiment IV, 50 micrograms per square centimeter",50%
same,% Inhibition,"flank organ hair; Experiment IV, 100 micrograms per square centimeter",50%
same,ODC activity in flank organs,[1],inhibit ODC activity
same,ODC activity,[1]; [3],selectively decreased ODC activity on treated but not untreated flank organs
CC(=O)O[C@]1(C(C)=O)CC[C@H]2[C@@H]3C=C(Cl)C4=CC(=O)CC[C@]4(C)[C@H]3CC[C@@]21C [Chlormadione acetate],% Inhibition,flank organ hair; [4],45%
same,ODC activity in flank organs,[1],inhibit ODC activity
CCC[C@]1(O)CC[C@H]2[C@@H]3CCC4=CC(=O)CC[C@]4(C)[C@H]3CC[C@@]21C [17-α-Propyltestosterone],% Inhibition,"flank organ hair; Experiment I, 6 micrograms per square centimeter",26%
same,ODC activity in flank organs,[1],inhibit ODC activity
same,ODC activity,[1]; [3],selectively decreased ODC activity on treated but not untreated flank organs
CC(=O)[C@H]1CC[C@H]2[C@@H]3CCC4=CC(=O)CC[C@]4(C)[C@H]3CC[C@]12C [Progesterone],% Inhibition,"flank organ hair; Experiment I, 15 days treatment in 21-day interval, 1000 micrograms per square centimeter",30%
same,% Inhibition,"flank organ hair; Experiment III, 1000 micrograms per square centimeter",57%
same,% Inhibition,"flank organ hair; Experiment IV, 1000 micrograms per square centimeter",48%
same,ODC activity in flank organs,[1],inhibit ODC activity
same,ODC activity,[1]; [2],inhibited ODC activity
CC(=O)S[C@@H]1CC2=CC(=O)CC[C@]2(C)[C@H]2CC[C@@]3(C)[C@@H](CC[C@@]34CCC(=O)O4)[C@H]12 [Spironolactone],% Inhibition,flank organ hair; [4],41%
